# Laboratory results reported in patent US9532957B2, “Method of stabilizing reduced coenzyme Q10” (Kaneka Corporation, priority 2001, dated 2017).
# Legend:
# [1] = Preliminary investigations on stabilization of reduced coenzyme Q10; type: physicochemical
# [2] = Oxidation stability of reduced coenzyme Q10 ethanol solution with L-ascorbic acid, stirred in air at 50° C.; type: physicochemical; conditions: 1 part L-ascorbic acid per 100 parts solvent, after 50 hours
# Procedure: In the examples, purity of reduced coenzyme Q10 and the weight ratio of reduced coenzyme Q10/oxidized coenzyme Q10 were determined by the HFLC analysis specified below. The reduced coenzyme Q10 purity values as determined, however, are by no means indicative of the limit purity value attainable in accordance with the present invention. Likewise, the ratio of the reduced coenzyme Q10 in the weight ratio of reduced coenzyme Q10/oxidized coenzyme Q10 values obtained never indicates the upper limit to that ratio.
# Column; SYMMETRY C18 (product of Waters), 250 mm (in length), 4.6 mm (in inside diameter): mobile phase; C2H5OH/CH3OH=4/3 (v/v); detection wavelength; 210 nm; flow rate; 1 ml/min: retention time of reduced coenzyme Q10; 9.1 min: retention time of oxidized coenzyme Q10; 13.3 min.
# Using the reduced coenzyme Q10 crystal obtained in Example 1, an ethanol solution containing 5 parts by weight of reduced coenzyme Q10 relative to 100 parts by weight of ethanol was prepared. To this ethanol solution, L-ascorbic acid was added so that 1 part by weight of L-ascorbic acid was contained relative to 100 parts by weight of the solvent (20 parts by weight relative to 100 parts by weight of reduced coenzyme Q10), and the solution was stirred in air at 50° C. […]
stabilization effect on reduced coenzyme Q10 ([1]; preliminary investigations),"stabilization effect on reduced coenzyme Q10 ([1]; used in combination with polyhydric alcohols having 3 or more OH, such as glycerine)",X: The residual ratio of ascorbic acid [2] [%],Molecule
has a stabilization effect,very poor,,O=C1O[C@H]([C@@H](O)CO)C(O)=C1O [vitamin C]
does not have the effect,,,Vitamin E [reference compound]
,,85.2,O=C1O[C@H]([C@@H](O)CO)C(O)=C1O [L-ascorbic acid]
